Several values for one entry are separate records, joined by “and”; a condition that tells them apart may be missing. Equal values may be shown once. Entries after “also recorded” stand apart in the source; their conditions may differ.
How the values were obtained:
[1] = test system: prothrombin time; test: Prothrombin time (PT) on citrated plasma of dosed dogs; assay type: in vivo, dog
Method: Coagulation assays were performed on platelet-poor, citrated plasma samples by a reference laboratory (Comparative Coagulation Laboratory, Animal Health Diagnostic Center, Ithaca, NY). […] The assay is configured with a bovine activated Factor X reagent that is added in excess to the test plasma and a chromogenic substrate of Factor Xa (STA Liquid anti-Xa, Diagnostica Stago). Residual, uninhibited Factor Xa cleaves the chromogenic substrate such that the inverse of the color change in the reaction mixture is proportional to the drug concentration in the test plasma. […] Assay controls, consisting of human plasma spiked with apixaban (STA Apixaban Controls, Diagnostica Stago) were analyzed before each batch of test samples to confirm assay performance. The apixaban levels in calibrators and controls are defined by the manufacturer from an internal reference assayed by HPLC-MS. […] A mechanical endpoint method (STA Compact, Diagnostica Stago) and human coagulation reagents were used to measure prothrombin time (Thromboplastin LI, Helena Diagnostics, Beaumont, TX) and activated partial thromboplastin time (Dade Actin FS, Dade Behring, Newark, DE). […] Tissue-factor (1:50,000 final dilution) activated TEG was performed using standard equipment (TEG-5000, Haemonetics, Braintree, MA) as previously reported ([35]), with assays conducted per established guidelines ([36]), with a modification to eliminate the rest time to facilitate rapid sample processing. Thromboelastography assays were conducted by experienced operators using four TEG channels and tracings terminated after maximum amplitude was established. Four values were extracted from TEG tracings: reaction time (R-time), clot formation time (K-time), clot formation angle (alpha), and maximum amplitude (MA).
Pairwise comparisons between continuous variables were conducted with Wilcoxon matched-pairs signed rank test, while comparisons of more than two groups were conducted using the Friedman test with Dunn's post-hoc adjustment. […]

[2] = test system: activated partial thromboplastin time; test: Activated partial thromboplastin time (aPTT) on citrated plasma of dosed dogs; assay type: in vivo, dog
Method: Coagulation assays were performed on platelet-poor, citrated plasma samples by a reference laboratory (Comparative Coagulation Laboratory, Animal Health Diagnostic Center, Ithaca, NY). […] The assay is configured with a bovine activated Factor X reagent that is added in excess to the test plasma and a chromogenic substrate of Factor Xa (STA Liquid anti-Xa, Diagnostica Stago). Residual, uninhibited Factor Xa cleaves the chromogenic substrate such that the inverse of the color change in the reaction mixture is proportional to the drug concentration in the test plasma. […] Assay controls, consisting of human plasma spiked with apixaban (STA Apixaban Controls, Diagnostica Stago) were analyzed before each batch of test samples to confirm assay performance. The apixaban levels in calibrators and controls are defined by the manufacturer from an internal reference assayed by HPLC-MS. […] A mechanical endpoint method (STA Compact, Diagnostica Stago) and human coagulation reagents were used to measure prothrombin time (Thromboplastin LI, Helena Diagnostics, Beaumont, TX) and activated partial thromboplastin time (Dade Actin FS, Dade Behring, Newark, DE). […]

[3] = test system: healthy mixed-breed dogs; test: Monitoring for adverse reactions after IV and PO apixaban; conditions: study period
Source text: Additionally, drug metabolism might be different in beagles compared with mixed-breed dogs ([33], [34]). […] The study was approved by the Institutional Animal Care and Use Committee (IACUC) at Cornell University College of Veterinary Medicine (Protocol #2019-0099). All dogs were housed at Cornell University and cared for by licensed veterinarians and technicians according to established protocols. All dogs were permanently adopted into private homes after study completion.
On the days of drug administration, 5 Fr × 25 cm trilumen wire-guided catheters (Mila International, Erlanger, KY) were aseptically placed in external jugular veins by modified-Seldinger technique to facilitate atraumatic, repeat blood sample collection. Dogs were sedated with IV butorphanol 0.2 mg/kg and dexmedetomidine 5 μg/kg (Zoetis, Parsippany, NJ) to facilitate catheter placement. Jugular catheters were secured using 3-0 nylon sutures, protected with sterile bandages, and flushed with 0.9% saline (no heparin was used). […] Dogs were closely monitored for adverse reactions throughout the sample collection period. […] After each sample collection, one citrate anticoagulated whole blood sample was analyzed using thromboelastography (TEG), while the second citrate sample was centrifuged (1,370 g, 10 min, 20°C), the plasma separated, split into two aliquots and then frozen at −80°C pending batch analyses.

[4] = test system: healthy mixed-breed dogs; test: Complete blood count before and after apixaban; assay type: in vivo, dog; set-up: RBC: unit not given beside the values; Neut / Lymph / Mono / Eos / Baso / HCT / MCV / MCH / MCHC: unit not given here; conditions: for Baso / Eos / HCT / Hgb / Lymph / MCH / MCHC / MCV / Mono / Neut / RBC / WBC: individual dogs (Dog 1-6); for WBC: in 10^3/µL (unit assumed)
[5] = male beagles, 5 mg/kg 14C labeled apixaban orally; cited from earlier work
[6] = horses, cited from earlier work
[7] = test system: Factor Xa; conditions: cited from earlier work

## COc1ccc(-n2nc(C(N)=O)c3c2C(=O)N(c2ccc(N4CCCCC4=O)cc2)CC3)cc1 [apixaban]
[1]; IV 0.18 mg/kg, at 5, 15, 30 and 60 min
  PT versus baseline: significantly prolonged
[1]; IV, estimate from the regression equation line of Figure 2B
  concentration required to double the PT from baseline: 2,485 ng/ml
[1]; PO 0.2 mg/kg, at 4, 6 and 8 h
  PT versus baseline: significantly prolonged
[2]; IV 0.18 mg/kg, at 5 and 15 min post-injection
  aPTT versus baseline: significantly prolonged
[2]; PO 0.2 mg/kg, 0.2 mg/kg
  aPTT versus baseline: not consistently affected; also recorded: did not have a significant effect
[3]
  adverse reactions, including signs of abnormal bleeding or bruising: no adverse reactions
[4]; +24h after IV apixaban
  Baso: 0.1 (2×) and 0.0 (4×)
  Eos: 0.3 (2×) and 0.4 (2×) and 0.7 (2×)
  HCT: 53 and 52 (2×) and 54 (2×) and 57
  Hgb: 17.7 and 17.2 and 16.8 and 17.5 (2×) and 18.3
  Lymph: 2.3 and 2 (2×) and 3.3 and 1.6 and 3.7
  MCH: 25 (3×) and 23 and 24 (2×)
  MCHC: 33 (2×) and 32 (4×)
  MCV: 73 and 75 and 71 and 74 and 76 (2×)
  Mono: 0.3 (2×) and 0.6 and 0.5 (3×)
  Neut: 4.1 and 5.8 and 5.6 (2×) and 5.1 and 8.0
  RBC: 7.2 (2×) and 6.9 and 7.3 (2×) and 7.4
  WBC: 7.1 and 8.8 and 9.6 and 8.9 and 7.6 and 13
[4]; +30h after PO apixaban
  Baso: 0 (3×) and 0.1 and 0.0 (2×)
  Eos: 0.3 (2×) and 0.2 (2×) and 0.4 and 0.6
  HCT: 56 and 55 and 52 (2×) and 46 and 50
  Lymph: 3.2 and 2 (2×) and 1.6 and 0.8 and 3.6
  MCH: 24 (2×) and 25 (2×) and 23 (2×)
  MCHC: 33 (4×) and 32 (2×)
  MCV: 72 (2×) and 76 and 70 and 75 and 74
  Mono: 0.5 (4×) and 0.4 and 0.3
  Neut: 6.1 (2×) and 5.4 and 7.9 and 5.7 and 7.3
  WBC: 10.1 and 8.3 and 10.8 and 8 and 7.6 and 12.1
[4]; +30h after PO apixaban, in 10^6/µL (unit assumed)
  RBC: 7.8 and 7.3 and 7.4 and 6.2 and 7 and 7.1
[4]; +30h after PO apixaban, in g/dL (unit assumed)
  Hgb: 18.6 and 18 and 17 and 15.1 and 16.2 and 16.9
[4]; IV, baseline versus 24 h
  CBC parameters: No changes
[4]; PO, baseline versus 30 h
  mean corpuscular hemoglobin concentration: significant reduction
[5]
  excretion of the unchanged compound via gastrointestinal routes: 59%
  excretion of the unchanged compound via renal route: 7%
[6]; oral
  plasma concentrations after oral administration: did not lead to quantifiable apixaban concentrations in plasma
[6]; single injection
  time by which concentrations declined below the lower limit of quantitation: ≤ 8 h
[6]
  half-life: 1.3 h
  protein binding: highly protein bound
[7]; humans receiving a single intravenous apixaban injection
  aXa activity observed after 12 h: 150 ng/mL
[7]; humans
  aXa activity values typically observed in human treatment trials: approximately 150 ng/ml

— article PMC8287028 (Frontiers in Veterinary Science, 2021)
